According to patent USRE45173E1, “Inhibitors of CYP 17” (Novartis AG, priority 2009, dated 2014):
Structures can show the parent of a compound that is named as a salt.

molecular target: recombinant human CYP17 enzyme (Homo sapiens (Human), UniProt P05093); assay: Cytochrome P450, 17-20 lyase (CYP17-lyase) assay, tritiated acetic acid release from 17-α-hydroxy pregnenolone [21-3H]; assay type: biochemical; conditions: human CYP17, substrate 0.25 μM; read-out: Lyase IC 50 nM Human/Rat (Human)
Excerpt: Assay method was adopted from a published protocol with some modifications to suit our requirements (Dmitry N Grigoryev et al, Analytical Biochemistry, (1999) 267, 319-330). […] Chloroform extraction removes the radioactive steroids and acetic acid is taken into aqueous layer. The tritiated acetic acid released in the assay thus extracted is quantified to determine the enzyme activity. […] The purified cell membrane preparations were used as the source for Human CYP17 enzyme. […] O, Nijar, et al., J Med Chem, (1998) 41, 902-912). […] Km for this substrate was determined by monitoring the tritiated acetic acid release as a function of substrate concentration. […] For the Km determination, the data was fit to a hyperbolic equation (Graphpad Prism® software IV). […] (Dmitry N. Grigoryev et al, Analytical Biochemistry (1999) 267, 319-330) […] NADPH is used at a final concentration of 4.2 mM. Total reaction volume was made up to 50 μL with 50 mM Phosphate buffer pH 7.5. The reaction mixture was incubated at room temperature for 90 minutes with gentle shaking. The reaction was stopped by the addition of 100 μL of buffer. 500 μL of 5% freshly prepared activated charcoal was added to the solution and mixed well by vortexing. The samples were centrifuged at 17568×g for 5 minutes. (14000 rpm). The supernatant was carefully transferred to fresh tube and 1.3 mL of scintillation fluid was added, mixed by vortexing. The radioactivity was measured in a 1450 MicroBeta TriLux™ scintillation counter from Wallac-Perkin Elmer®, USA. The measurements were carried out in 2.0 mL Eppendorforf™ tubes. […] The amount of tritiated acetic acid released is proportional to the lyase activity. Percent lyase activity in presence of inhibitor was calculated using the formula given below. […] Enzyme reaction in presence of inhibitor. • Positive control: […] For IC50 determination, the % inhibition was plotted as a function of inhibitor concentration. The data was fitted to sigmoidal equation using Graphpad Prism® software IV to generate IC50 values.

recombinant human CYP17 enzyme, sequence (P05093 whole entry): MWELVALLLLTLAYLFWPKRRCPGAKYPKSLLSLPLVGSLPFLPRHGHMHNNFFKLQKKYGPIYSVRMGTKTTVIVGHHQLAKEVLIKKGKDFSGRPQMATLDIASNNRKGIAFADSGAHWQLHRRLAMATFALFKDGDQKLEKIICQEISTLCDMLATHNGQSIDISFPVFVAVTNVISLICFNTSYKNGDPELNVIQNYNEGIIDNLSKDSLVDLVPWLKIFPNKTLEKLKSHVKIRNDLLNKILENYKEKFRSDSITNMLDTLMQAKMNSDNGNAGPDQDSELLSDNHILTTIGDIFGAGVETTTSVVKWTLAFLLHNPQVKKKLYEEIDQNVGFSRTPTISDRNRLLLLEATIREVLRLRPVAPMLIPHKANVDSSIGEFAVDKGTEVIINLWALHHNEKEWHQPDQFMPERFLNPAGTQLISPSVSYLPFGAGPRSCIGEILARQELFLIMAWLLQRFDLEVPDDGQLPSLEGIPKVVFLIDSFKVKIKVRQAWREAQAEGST

| SMILES | IC50 |
| --- | --- |
| O=C1N(c2ccc3ncsc3c2)CCN1c1cnccc1CN1CCCC1 [Example 176A, 1-Benzothiazol-6-yl-3-(4-pyrrolidin-1-ylmethyl-pyridin-3-yl)-imidazolidin-2-one] | 39 nM |
| Cc1ccncc1N1CCN(c2ccc3c(C)noc3c2)C1=O [Example 111A, 1-(3-Methyl-benzo[d]isoxazol-6-yl)-3-(4-methyl-pyridin-3-yl)-imidazolidin-2-one] | 106 nM |
| Cc1cc(N2CCN(c3cnccc3C)C2=O)cs1 [Example 92B, 1-(4-Methyl-pyridin-3-yl)-3-(5-methyl-thiophen-3-yl)-imidazolidin-2-one] | 12 nM |
| COc1ccc(N2CCN(c3cnccc3C)C2=O)cc1F [Example 53A, 1-(3-Fluoro-4-methoxy-phenyl)-3-(4-methyl-pyridin-3-yl)-imidazolidin-2-one] | 136 nM |
| Cc1ccncc1N1CCN(c2ccc(C#N)c(F)c2)C1=O [Example 140A, 2-Fluoro-4-[3-(4-methyl-pyridin-3-yl)-2-oxo-imidazolidin-1-yl]-benzonitrile] | 97 nM |
| Cc1ccncc1N1CCN(c2cnc3ccccn23)C1=O [Example 119A, 1-Imidazo[1,2-a]pyridin-3-yl-3-(4-methyl-pyridin-3-yl)-imidazolidin-2-One] | 3200 nM |
| COC(OC)c1ccncc1N1CCN(c2ccc3ncsc3c2)C1=O [Example 149A, 1-Benzothiazol-6-yl-3-(4-dimethoxymethyl-pyridin-3-yl)-imidazolidin-2-one] | 37 nM |
| COc1cccc(N2CCN(c3cnccc3C)C2=O)c1 [Example 56A, 1-(3-Methoxy-phenyl)-3-(4-methyl-pyridin-3-yl)-imidazolidin-2-one] | 25 nM |
| Cc1ccncc1N1CCN(c2ccc(F)c(F)c2)C1=O [Example 45A, 1-(3,4-Difluoro-phenyl)-3-(4-methyl-pyridin-3-yl)-imidazolidin-2-one] | 27 nM |
| Cc1ccncc1N1CCN(c2ccc3[nH]nnc3c2)C1=O [Example 141A, 1-(1H-Benzotriazol-5-yl)-3-(4-methyl-pyridin-3-yl)-imidazolidin-2-one Hydrochloride] | 13 nM |
| COc1nccc2sc(N3CCN(c4cnccc4C)C3=O)cc12 [Example 97A, 1-(4-Methoxy-thieno[3,2-c]pyridin-2-yl)-3-(4-methyl-pyridin-3-yl)-imidazolidin-2-one] | 356 nM |
| CN1CCC[C@H]1COc1ccncc1N1CCN(c2ccc3ncsc3c2)C1=O (stereo in doubt) [Example 181A, 1-Benzothiazol-6-yl-3-[4-(1-methyl-pyrrolidin-2-ylmethoxy)-pyridin-3-yf]-imidazolidin-2-one] | 3060 nM |
| O=C1N(c2ccc3ncsc3c2)CCN1c1cnccc1C(F)F [Example 125A, 1-Benzothiazol-6-yl-3-(4-difluoromethyl-pyridin-3-yl)-imidazolidin-2-one] | 17 nM |
| Cc1nc2ccc(N3CCN(c4cnccc4C)C3=O)cc2s1 [Example 105A, 1-(2-Methyl-benzothiazol-6-yl)-3-(4-methyl-pyridin-3-yl)-imidazolidin-2-one] | 1470 nM |
| O=C1N(c2ccc3ncsc3c2)CCN1c1cnccc1CN1CCOCC1 [Example 177A, 1-benzothiazol-6-yl-3-(4-morpholin-4-ylmethyl-pyridin-3-yl)-imidazolidin-2-one] | 32 nM |
| COc1cc(N2CCN(c3cnccc3C)C2=O)ccc1F [Example 74A, 1-(4-Fluoro-3-methoxy-phenyl)-3-(4-methyl-pyridin-3-yl)-imidazolidin-2-one] | 76 nM |
| Cc1ccncc1N1CCN(c2cc3c(Cl)nccc3s2)C1=O [Example 98A, 1-(4-chloro-thieno[3,2-c]pyridin-2-yl)-3-(4-methyl-pyridin-3-yl)-imidazolidin-2-one] | 18 nM |

| SMILES | IC50 |
| --- | --- |
| Cc1ccncc1N1CCN(c2ccc3cn[nH]c3c2)C1=O [Example 121A, 1-(1H-Indazol-6-yl)-3-(4-methyl-pyridin-3-yl)-imidazolidin-2-one] | 2.5 nM |
| Cc1ccncc1N1CCN(c2ccc3c(cnn3C)c2)C1=O [Example 114A, 1-(1-Methyl-1H-indazol-5-yl)-3-(4-methyl-pyridin-3-yl)-imidazolidin-2-one] | 24 nM |
| Cc1ccncc1N1CCN(c2cc3c(C)nccc3s2)C1=O [Example 194A] | 21 nM |
| CCc1ccncc1N1CCN(c2ccc3ncsc3c2)C1=O [Example 159A, 1-(benzo[d]thiazol-6-yl)-3-(4-ethylpyridin-3-yl)imidazolidin-2-one] | 3.4 nM |
| Cc1ccncc1N1CCN(c2ccc(-c3ccc(F)cc3)cc2)C1=O [Example 87A, 1-(4′-Fluoro-biphenyl-4-yl)-3-(4-methyl-pyridin-3-yl)-imidazolidin-2-one] | 255 nM |
| Cc1ccncc1N1CCN(c2ccc3[nH]nc(C)c3c2)C1=O [Example 95A, 1-(3-Methyl-1H-indazol-5-yl)-3-(4-methyl-pyridin-3-yl)-imidazolidin-2-one] | 119 nM |
| CCc1cn(-c2ccc3ncsc3c2)c(=O)n1-c1cnccc1C [Example 168A, 1-Benzothiazol-6-yl-4-ethyl-3-(4-methyl-pyridin-3-yl)-1,3-dihydro-imidazol-2-one] | 384 nM |
| Cc1cc(N2CCN(c3cnccc3C)C2=O)ccc1F [Example 59A, 1-(4-Fluoro-3-methyl-phenyl)-3-(4-methyl-pyridin-3-yl)-imidazolidin-2-one] | 17 nM |
| Cn1cncc1N1CCN(c2ccc3ncsc3c2)C1=O [Example 188A, 3-Benzothiazol-6-yl-3′-methyl-4,5-dihydro-3H,3′H-[1,4]biimidazolyl-2-one] | 195 nM |
| Cc1ccncc1N1CCN(c2cnc3[nH]cnc3c2)C1=O [Example 122A, 1-(3H-Imidazo[4,5-b]pyridin-6-yl)-3-(4-methyl-pyridin-3-yl)-imidazolidin-2-one Trifluoroacetic Acid] | 383 nM |
| Cc1ccncc1N1CCN(c2ccc3scnc3c2)C1=O [Example 62A, 1-Benzothiazol-5-yl-3-(4-methyl-pyridin-3-yl)-imidazolidin-2-one] | 426 nM |
| Cc1c(Cl)cncc1N1CCN(c2ccc3ncsc3c2)C1=O [Example 151A, 1-Benzothiazol-6-yl-3-(5-chloro-4-methyl-pyridin-3-yl)-imidazolidin-2-one] | 13.3 nM |
| Cc1ccncc1N1CCN(c2ccc(Cl)cc2)C1=O [Example 38A, 1-(4-Chloro-phenyl)-3-(4-methyl-pyridin-3-yl)-imidazolidin-2-one] | 70 nM |
| Cc1ccncc1N1CCN(c2cn(C)c3ccc(Cl)cc23)C1=O [Example 137A, 1-(5-Chloro-1-methyl-1H-indol-3-yl)-3-(4-methyl-pyridin-3-yl)-imidazolidin-2-one] | 1550 nM |
| Cc1ccncc1N1CCN(c2ccc3onc(C)c3c2)C1=O [Example 101A, 1-(3-Methyl-benzo[d]isoxazol-5-yl)-3-(4-methyl-pyridin-3-yl)-imidazolidin-2-one] | 46 nM |
| Cc1ccncc1N1CCN(c2ccc3[nH]nc(N)c3c2)C1=O [Example 118A, 1-(3-Amino-1H-indazol-5-yl)-3-(4-methyl-pyridin-3-yl)-imidazolidin-2-one] | 17 nM |

same assay, conditions: human CYP17, substrate 0.25 μM; read-out: Lyase IC 50 Human/Rat (Human)

| SMILES | IC50 |
| --- | --- |
| Cc1nc2cc(N3CCN(c4cnccc4C)C3=O)ccc2o1 [Example 93A, 1-(2-Methyl-benzooxazol-5-yl)-3-(4-methyl-pyridin-3-yl)-imidazolidin-2-one] | > 10000 nM |
| Cc1ccncc1N1CC(C)(C)N(c2ccc3ncsc3c2)C1=O [Example 163A, 3-Benzothiazol-6-yl-4,4-dimethyl-1-(4-methyl-pyridin-3-yl)-imidazolidin-2-one] | > 10000 nM |
| CN1CCC(COc2ccncc2N2CCN(c3ccc4ncsc4c3)C2=O)CC1 [Example 184A, 1-Benzothiazol-6-yl-3-[4-(1-methyl-piperidin-4-ylmethoxy)-pyridin-3-yl]-imidazolidin-2-one] | > 10000 nM |
| Cc1ccncc1N1CCN(c2ccc3nn(C)cc3c2)C1=O [Example 132A, 1-(2-Methyl-2H-indazol-5-yl)-3-(4-methyl-pyridin-3-yl)-imidazolidin-2-one] | > 10000 nM |
| O=C1N(c2ccc3ncsc3c2)CCN1c1cncc2nccn12 [Example 186A, 1-Benzothiazol-6-yl-3-imidazo[1,2-a]pyrazin-5-yl-imidazolidin-2-one] | > 10000 nM |
| CC(=O)Nc1ccc(N2CCN(c3cnccc3C)C2=O)cn1 [Example 75A, N-{5-[3-(4-Methyl-pyridin-3-yl)-2-oxo-imidazolidin-1-yl]-pyridin-2-yl}-acetamide] | > 10000 nM |
| Cc1ccncc1N1CCN(c2cn(C)c3cccc(C#N)c23)C1=O [Example 146A, 1-Methyl-3-[3-(4-methyl-pyridin-3-yl)-2-oxo-imidazolidin-1-yl]-1H-indole-4-carbonitrile] | > 10000 nM |
